Experiments:
[1] = target: T1, 5-HT M-receptor (Oryctolagus cuniculus, UniProt A0A5F9C9J3); assay: pA2 against 5-HT in isolated rabbit heart; assay type: cell-based; conditions: isolated rabbit heart; negative log of molar concentration of antagonist reducing effect of twice the ED50 of 5-HT to that of the ED50; read-out: pA2 5-HT (converted)
T1 construct: determining their pA2 values in the isolated rabbit heart; from tissue; host or cells: isolated rabbit heart (receptor on the cardiac neurones)
T1 sequence (A0A5F9C9J3 1-494): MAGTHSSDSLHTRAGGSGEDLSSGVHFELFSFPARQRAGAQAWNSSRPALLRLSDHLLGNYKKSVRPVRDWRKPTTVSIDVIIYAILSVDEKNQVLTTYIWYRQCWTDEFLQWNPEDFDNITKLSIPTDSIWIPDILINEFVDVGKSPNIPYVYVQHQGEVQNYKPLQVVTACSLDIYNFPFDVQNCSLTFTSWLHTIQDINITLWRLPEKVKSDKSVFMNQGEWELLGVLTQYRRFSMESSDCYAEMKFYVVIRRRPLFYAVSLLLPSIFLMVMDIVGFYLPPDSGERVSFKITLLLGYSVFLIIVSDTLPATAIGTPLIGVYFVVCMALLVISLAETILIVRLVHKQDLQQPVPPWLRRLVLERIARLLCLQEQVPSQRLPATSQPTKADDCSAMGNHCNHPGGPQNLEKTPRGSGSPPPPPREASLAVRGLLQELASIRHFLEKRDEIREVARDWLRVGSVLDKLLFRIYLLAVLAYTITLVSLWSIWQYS
Procedure: (§1) The activity of the compounds against 5-HT can be assessed by determining their pA2 values in the isolated rabbit heart as described by J. R. Fozard et al, Eur. J. Pharmacol., 59, 195-210 (1979). In the method described, the molar concentration of antagonist which reduces the effects of twice the ED50 of 5-HT to that of the ED50 in the absence of antagonist is determined. The pA2 value is the negative logarithm of said molar concentrations.

[2] = target: T1, 5-HT M-receptor; conditions: reported by J. R. Fozard et al, Eur. J. Pharmacol. 1979 / 1978; cited from earlier work
[3] = test system: 5-HT D-receptor; conditions: at the doses used clinically for the treatment of migraine; cited from earlier work
[4] = target: T2, rabbit heart (5-HT M receptor) (Oryctolagus cuniculus, UniProt A0A5F9C9J3); assay: Inhibition of standard response to 5-HT, rabbit heart; assay type: cell-based; conditions: rabbit heart, agonist 5-HT; read-out: Concentration to inhibit standard response to stimulants by 50% (IC50)
T2 construct: RABBIT HEART; from tissue; host or cells: rabbit heart
T2 sequence (A0A5F9C9J3 1-494): T1 sequence (A0A5F9C9J3 1-494)
Procedure: as §1
(§2) A selection of classical in vitro pharmacological test preparations (rat uterus, rat fundus, guinea-pig ileum, guinea-pig taenia caeci) were set up according to well-established procedures (see "Pharmacological Experiments on Isolated Preparations" Staff of the Department of Pharmacology, University of Edinburgh, Livingstone, Edinburgh 1970). Various spasmogens were used to elicit contraction of these tissues though mechanisms other than the 5-HT "M" receptor. The concentrations of tropyl 3,5-dimethoxybenzoate (A), tropyl 3,5-dimethylbenzoate (B) and tropyl 3,5-dichlorobenzoate (C) which reduced the effects of a submaximal dose of agonist by 50% were determined (IC50). The results are set forth in Table VI below in which the compounds are identified by the reference letters used above.

[5] = test system: rat uterus; assay: Inhibition of standard response to 5-HT, rat uterus; assay type: cell-based; conditions: agonist 5-HT, read-out: Concentration to inhibit standard response to stimulants by 50% (IC50)
Text: as §2

[6] = test system: Von Bezold-Jarisch Reflex (5-HT M-receptor); assay: Antagonism of the Von Bezold-Jarisch reflex evoked by 5-HT in the anaesthetized rat; assay type: in vivo, rat (male Sprague-Dawley); conditions: comparison in words, i.v.
Text: The activity of these compounds against 5-HT can be assessed in vivo by measurement of the effect of the compound on the Von Bezold-Jarisch Reflex induced by 5-HT injected intravenously into the rat (A. S. Paintal, Physiol. Rev. 53, 159-227, 1973). The transient caridac slowing arises from an increased afferent vagus activity arising from stimulation by 5-HT of sensory afferent fibres in and around the heart (see Example 3).
Antagonism of the Von Bezold-Jarisch reflex evoked by 5-HT in the anaesthetized rat was measured for tropyl 3,5-dimethoxybenzoate (A), tropyl 3,5-dimethylbenzoate (B) and tropyl 3,5-dichlorobenzoate (C) using the following method.
Male Sprague-Dawley rats weighing 250-300 g are anaesthetized with urethane, 1.25 g/kg injected intraperitoneally and set up for recording blood pressure and heart rate as described in J. R. Fozard et al, J. Cardiovas. Pharmacol. 2, 229-245 (1980). A submaximal dose of 5-HT ([…]) is given repeatedly into the cannulated jugular vein and changes in heart rate are quantified. Antagonists are given intravenously and the doses required to just inhibit the response to 5-HT (threshold dose) or to inhibit the response to 5-HT by 50% (ED50) are determined.

[7] = test system: rat fundus; assay: Inhibition of standard response to 5-HT, rat fundus; assay type: cell-based; conditions: agonist 5-HT, read-out: Concentration to inhibit standard response to stimulants by 50% (IC50)
Text: as §2

[8] = test system: guinea-pig taenia caeci; assay: Inhibition of standard response to calcium, guinea-pig taenia caeci; assay type: cell-based; conditions: Cavia porcellus; guinea-pig taenia caeci in potassium-depolarized Tyrode solution, agonist calcium; read-out: Concentration to inhibit standard response to stimulants by 50% (IC50)
Text: as §2
*In potassiumdepolarized Tyrode solution

[9] = test system: rat fundus; assay: Inhibition of standard response to acetylcholine, rat fundus; assay type: cell-based; conditions: agonist acetylcholine, read-out: Concentration to inhibit standard response to stimulants by 50% (IC50)
Text: as §2

[10] = test system: rat uterus; assay: Inhibition of standard response to oxytocin, rat uterus; assay type: cell-based; conditions: agonist oxytocin, read-out: Concentration to inhibit standard response to stimulants by 50% (IC50)
Text: as §2

[11] = test system: mouse; assay: LD50 in the mouse; assay type: in vivo; conditions: as shown by LD50 values in the mouse and rat
[12] = LD50 in the mouse; assay type: in vivo; conditions: in vivo, mouse
[13] = test system: guinea-pig ileum; assay: Inhibition of standard response to histamine, guinea-pig ileum; assay type: cell-based; conditions: Cavia porcellus, agonist histamine, read-out: Concentration to inhibit standard response to stimulants by 50% (IC50)
Text: as §2

[14] = LD50 in the rat; conditions: in vivo, iv
[15] = test system: guinea-pig ileum; assay: Inhibition of standard response to acetylcholine, guinea-pig ileum; assay type: cell-based; conditions: Cavia porcellus, agonist acetylcholine, read-out: Concentration to inhibit standard response to stimulants by 50% (IC50)
Text: as §2

SMILES: O=C(O[C@H]1C[C@H]2CC[C@@H](C1)N2)c1cc(Cl)cc(Cl)c1 [nortropyl 3,5-dichlorobenzoate, reference compound]
- Kb [1]: 0.0158 µM

SMILES: CN1[C@@H]2CC[C@H]1C[C@@H](OC(=O)c1ccccc1)C2 [tropylbenzoate, reference compound]
- Kb [1]: 0.0631 µM
- pA2 value (5-HT) [2]: 7.12

SMILES: COc1ccc(C(=O)O[C@H]2C[C@H]3CC[C@@H](C2)N3C)cc1OC [tropyl 3,4-dimethoxybenzoate, reference compound]
- Kb [1]: 0.0631 µM

SMILES: CC[C@@H](CO)NC(=O)[C@@H]1C=C2c3cccc4c3c(cn4C)C[C@H]2N(C)C1 [methysergide]
- 5-HT D-receptor antagonism [3]: 5-HT D-receptor antagonists

SMILES: CN1[C@@H]2CC[C@H]1C[C@@H](OC(=O)c1cccc(Cl)c1)C2 [tropyl 3-chlorobenzoate]
- Kb [1]: 0.00251 µM

SMILES: CC(C)NC[C@H](O)COc1cccc2ccccc12 (racemic) [propanolol]
- 5-HT D-receptor antagonism [3]: 5-HT D-receptor antagonists

SMILES: COc1cc(OC)cc(C(=O)O[C@H]2C[C@H]3CC[C@@H](C2)N3C)c1 [tropyl 3,5-dimethoxybenzoate]
- IC50 [4]: 0.0094 µM
- IC50 [5]: > 52.5 µM
- potency relative to metoclopramide [6]: many times more potent than metoclopramide
- IC50 [7]: 40 µM
- IC50 [8]: 36.1 µM
- IC50 [9]: 13.1 µM
- IC50 [10]: > 52.5 µM
- Kb [1]: 0.00398 µM
- toxicity in words [11]: relatively non-toxic
- LD50 ([12]; ip): 28 mg/kg
- LD50 ([12]; iv): 29 mg/kg
- LD50 ([12]; sc): 17 mg/kg
- LD50 ([12]; oral): 160 mg/kg
- IC50 [13]: 6.61 µM
- LD50 [14]: 13 mg/kg
- IC50 [15]: 9.56 µM
